Test results: patent US4329349A, “6-C1-4 Alkyl-7-phenyl or substituted phenyl-1,6-naphthyridine-5(6H)-ones” (Sandoz, Inc., priority 1980, dated 1982)
Read-outs that look alike come from different tables or passages of the source.

Tests used:
Type in all cases: in vivo
[1] = test system: male Royal Hart mice (rotarod time); experiment: Test A (Rotarod Test), muscle relaxant; settings: for ED50: Mus musculus, tested 30 and 60 minutes after administration, read-out: ED50 (dose which decreases the rotarod time by 50%); for percent change in rotarod time: 200 mg./kg. p.o., vs control
Text: (§1) The compounds of Formula I and the pharmaceutically acceptable acid addition salts thereof are useful for the treatment of inflammation in animals (e.g., mammals) as indicated by Test E and, with the exception of those wherein R2 is 4-NR5 R6 and R3 and R4 are hydrogen, as muscle relaxants in animals (e.g., mammals) as indicated by Tests A, B, C and D. The preferred compounds of Formula I and pharmaceutically acceptable acid addition salts set forth above are those that are preferred for muscle relaxation.
Test A (Rotarod Test): A modification of the rotarod method of Dunham et al., J. Am. Pharm. Assoc. 46, 208 (1957), is used. Groups of 5 male Royal Hart mice weighing 20-25 g. are trained to ride a rod revolving at 15 r.p.m. covered with corrugated paper for 60-90 seconds. Ability of the mice to remain on the rod is tested again at 30 minutes and 60 minutes after intraperitoneal or oral administration of the drug (the compound of Formula I in free base or pharmaceutically acceptable acid addition salt form) at a dose of 20-400 mg./kg. body weight or saline. Rotarod times for control and treated groups are compared to determine the percent change. The ED50 is the dose of the drug which decreases the rotarod time by 50% or is calculated by interpolation.

[2] = test system: mono (patellar)--and poly (flexor)--synaptic gross spinal reflexes; experiment: Test B (Gross Spinal Reflex), muscle relaxant; settings: Felis catus, iv, cats, alpha chloralose anesthesia, progressively accumulating doses; read-out: ED50 (dose that reduces the response by 50%)
Text: as §1
Test B (Gross Spinal Reflex): Male cats weighing 2.5-3.0 kg. are utilized to study the effects of drugs on the mono (patellar)--and poly (flexor)--synaptic gross spinal reflexes. A Grass Model 7 polygraph with two ft. 03 force displacement transducers and two low level D.C. pre-amplifiers is utilized to measure the flexor and patellar responses.
Anesthesia is induced with ether, followed by an i.v. injection of alpha chloralose dissolved in warm distilled water at a dose of 70 mg./kg. body weight. […]
A drill bit pin is inserted just behind the lateral epicondyle of the left femur. […] Contraction of the left leg is measured via a force displacement transducer. […]
A series of control responses is recorded prior to administration of the drug (compound of Formula I in free base or pharmaceutically acceptable acid addition salt form). […]

linguomandibular reflex = experiment: Test D (Linguomandibular Reflex (LMR)), muscle relaxant; settings: Felis catus, iv, cats, alpha chloralose anesthesia; read-out: ED50 (dose that reduces the response by 50%)
Text: as §1
Test D (Linguomandibular Reflex (LMR)): The linguomandibular reflex is a polysynaptic reflex involving interneurons within the brain stem. Inhibition of the linguomandibular reflex has been correlated with central muscle relaxant activity. See Bhargava et al., Brit. J. Pharmacol. 25, 74-80 (1965).
Male cats weighing 2.0-3.0 kg. are utilized to study the effect of a drug on the linguomandibular reflex. […]
The head of the cat is rigidly fixed in a Kopf stereotaxic u-frame assembly allowing the lower jaw (mandible) to move freely. The movement of the lower jaw is recorded through a system of surgical thread, pulleys and a ft. […]
After consistent linguomandibular responses are obtained, the test drug (compound of Formula I in free base or pharmaceutically acceptable acid addition salt form) is administered intravenously at a dose of 2-50 mg./kg. body weight and its effect is recorded. […]

[3] = test system: carrageenan-induced edema; experiment: Test E (Acute Carrageenan-Induced Edema), anti-inflammatory; settings: Rattus norvegicus, po, 3 h; p.o., rats, one hour prior to carrageenan; edema measured three hours after carrageenan
Text: as §1
Test E (Acute Carrageenan-Induced Edema): Rats are orally dosed (10-200 mg./kg. body weight) with the test drug (compound of Formula I in free base or pharmaceutically acceptable acid addition salt form) one hour prior to administration of carrageenan; edema is measured three hours subsequent to the carrageenan administration. See Winter, Proc. Soc. Exp. Biol. 111, 544 (1962).

| SMILES | ED50 ([1]; ip) [mg/kg] | ED50 ([1]; po) [mg/kg] | ED50 [2] [mg/kg] | ED50 (linguomandibular reflex) [mg/kg] | ED50 [3] [mg/kg] | percent change in rotarod time [1] [%] |
| --- | --- | --- | --- | --- | --- | --- |
| Cn1c(-c2ccccc2Cl)cc2ncccc2c1=O [Example 4, 7-(2'-Chlorophenyl)-6-methyl-1,6-naphthyridine-5(6H)-one] | 49.3 | 39.1 | 1.6 | 4.6 | 29 |  |
| Cc1ccccc1-c1cc2ncccc2c(=O)n1C [Example 6, 6-Methyl-7-(2'-methylphenyl)-1,6-naphthyridine-5-(6H)-one] | 36.8 | 43.5 |  |  |  |  |
| Cn1c(-c2ccc(Cl)cc2)cc2ncccc2c1=O [Example 11, 7-(4'-Chlorophenyl)-6-methyl-1,6-naphthyridine-5-(6H)-one] | 134 |  |  |  |  | 32 |
| CN(C)c1cccc(-c2cc3ncccc3c(=O)n2C)c1 [Example 8, 7-(3'-Dimethylaminophenyl)-6-methyl-1,6-naphthyridine-5(6H)-one] | 141 |  |  |  |  | 47.3 |
